Measurements: ChEMBL document CHEMBL4507276 (2021)

Experiments:
[1] = biological target: Cholecystokinin receptor type A (Homo sapiens) (UniProt P32238); experiment: CCKA/H Cerep selectivity data (BI); conditions: Compound concentration 20.0 uM
[2] = biological target: Somatostatin receptor type 1 (Homo sapiens) (UniProt P30872); experiment: SST1H_AGON Cerep selectivity data (BI); conditions: filed as agonist, Compound concentration 20.0 uM
[3] = biological target: Sodium-dependent noradrenaline transporter (Homo sapiens) (UniProt P23975); experiment: NETRANS/H Eurofins-Panlabs selectivity data (BI); conditions: Compound concentration 10.0 uM
Sequence of Sodium-dependent noradrenaline transporter (Homo sapiens) (P23975 whole entry): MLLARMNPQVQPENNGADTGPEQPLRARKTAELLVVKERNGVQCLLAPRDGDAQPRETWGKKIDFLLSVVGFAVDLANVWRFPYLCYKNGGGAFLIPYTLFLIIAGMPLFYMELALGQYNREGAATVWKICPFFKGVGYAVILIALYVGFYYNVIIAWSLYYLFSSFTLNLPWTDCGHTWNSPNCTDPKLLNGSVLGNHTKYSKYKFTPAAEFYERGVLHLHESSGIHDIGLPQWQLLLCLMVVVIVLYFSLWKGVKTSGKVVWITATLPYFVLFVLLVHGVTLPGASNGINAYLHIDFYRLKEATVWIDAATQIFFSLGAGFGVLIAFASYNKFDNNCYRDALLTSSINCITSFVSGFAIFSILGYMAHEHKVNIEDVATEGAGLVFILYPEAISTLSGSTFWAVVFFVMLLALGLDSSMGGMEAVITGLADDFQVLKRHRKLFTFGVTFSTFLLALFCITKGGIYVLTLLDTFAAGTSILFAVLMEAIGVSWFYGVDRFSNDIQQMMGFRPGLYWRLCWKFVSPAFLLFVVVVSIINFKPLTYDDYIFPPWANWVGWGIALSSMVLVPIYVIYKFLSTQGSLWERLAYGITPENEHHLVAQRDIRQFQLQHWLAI

[4] = biological target: Calcium/calmodulin-dependent protein kinase type 1D (Homo sapiens) (UniProt Q8IU85); experiment: CAMK1D Invitrogen selectivity data (BI); conditions: Compound concentration 3.0 uM
Sequence of Calcium/calmodulin-dependent protein kinase type 1D (Homo sapiens) (Q8IU85 whole entry, looked up): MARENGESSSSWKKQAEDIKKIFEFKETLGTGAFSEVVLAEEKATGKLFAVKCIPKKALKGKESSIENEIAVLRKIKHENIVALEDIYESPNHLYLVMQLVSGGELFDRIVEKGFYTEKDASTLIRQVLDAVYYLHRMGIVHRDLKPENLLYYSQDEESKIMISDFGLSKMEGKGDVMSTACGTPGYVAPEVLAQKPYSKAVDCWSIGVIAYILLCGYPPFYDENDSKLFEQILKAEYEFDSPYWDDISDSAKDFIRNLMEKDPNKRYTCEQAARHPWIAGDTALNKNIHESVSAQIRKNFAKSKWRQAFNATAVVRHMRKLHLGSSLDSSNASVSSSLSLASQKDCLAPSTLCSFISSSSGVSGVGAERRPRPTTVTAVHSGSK

[5] = biological target: Serine/threonine-protein kinase MRCK beta (Homo sapiens) (UniProt Q9Y5S2); experiment: CDC42 BPB Invitrogen selectivity data (BI); conditions: Compound concentration 3.0 uM
[6] = biological target: T1, Inhibitor of nuclear factor kappa-B kinase subunit alpha (Homo sapiens) (UniProt O15111); experiment: CHUK_IKKA Invitrogen selectivity data (BI); conditions: Compound concentration 3.0 uM
T1 sequence (whole entry): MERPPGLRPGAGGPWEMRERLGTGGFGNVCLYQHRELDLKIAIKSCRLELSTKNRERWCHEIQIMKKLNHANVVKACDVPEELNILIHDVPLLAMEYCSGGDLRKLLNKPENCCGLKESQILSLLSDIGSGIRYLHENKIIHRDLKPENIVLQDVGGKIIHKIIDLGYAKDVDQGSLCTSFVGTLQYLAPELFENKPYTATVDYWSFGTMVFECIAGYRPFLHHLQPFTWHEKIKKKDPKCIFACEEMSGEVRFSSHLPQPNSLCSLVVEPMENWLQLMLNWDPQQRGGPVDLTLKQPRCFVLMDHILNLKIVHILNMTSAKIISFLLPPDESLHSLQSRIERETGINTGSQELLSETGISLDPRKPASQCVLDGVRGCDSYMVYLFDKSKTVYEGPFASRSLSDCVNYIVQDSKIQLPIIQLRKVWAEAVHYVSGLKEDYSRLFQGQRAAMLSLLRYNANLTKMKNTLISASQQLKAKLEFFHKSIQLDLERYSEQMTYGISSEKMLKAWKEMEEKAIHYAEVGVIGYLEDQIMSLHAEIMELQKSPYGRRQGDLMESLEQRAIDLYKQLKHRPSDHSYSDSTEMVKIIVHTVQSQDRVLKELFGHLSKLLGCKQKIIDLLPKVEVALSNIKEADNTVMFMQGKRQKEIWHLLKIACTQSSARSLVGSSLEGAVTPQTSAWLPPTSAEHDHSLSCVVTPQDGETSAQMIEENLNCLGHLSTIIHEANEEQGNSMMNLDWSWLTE

[7] = biological target: Receptor tyrosine-protein kinase erbB-2 (Homo sapiens) (UniProt P04626); experiment: ERBB2 Invitrogen selectivity data (BI); conditions: Compound concentration 3.0 uM
[8] = biological target: Fibroblast growth factor receptor 4 (Homo sapiens) (UniProt P22455); experiment: FGFR4 Invitrogen selectivity data (BI); conditions: Compound concentration 3.0 uM
Sequence of Fibroblast growth factor receptor 4 (Homo sapiens) (P22455 22-802 limits assumed): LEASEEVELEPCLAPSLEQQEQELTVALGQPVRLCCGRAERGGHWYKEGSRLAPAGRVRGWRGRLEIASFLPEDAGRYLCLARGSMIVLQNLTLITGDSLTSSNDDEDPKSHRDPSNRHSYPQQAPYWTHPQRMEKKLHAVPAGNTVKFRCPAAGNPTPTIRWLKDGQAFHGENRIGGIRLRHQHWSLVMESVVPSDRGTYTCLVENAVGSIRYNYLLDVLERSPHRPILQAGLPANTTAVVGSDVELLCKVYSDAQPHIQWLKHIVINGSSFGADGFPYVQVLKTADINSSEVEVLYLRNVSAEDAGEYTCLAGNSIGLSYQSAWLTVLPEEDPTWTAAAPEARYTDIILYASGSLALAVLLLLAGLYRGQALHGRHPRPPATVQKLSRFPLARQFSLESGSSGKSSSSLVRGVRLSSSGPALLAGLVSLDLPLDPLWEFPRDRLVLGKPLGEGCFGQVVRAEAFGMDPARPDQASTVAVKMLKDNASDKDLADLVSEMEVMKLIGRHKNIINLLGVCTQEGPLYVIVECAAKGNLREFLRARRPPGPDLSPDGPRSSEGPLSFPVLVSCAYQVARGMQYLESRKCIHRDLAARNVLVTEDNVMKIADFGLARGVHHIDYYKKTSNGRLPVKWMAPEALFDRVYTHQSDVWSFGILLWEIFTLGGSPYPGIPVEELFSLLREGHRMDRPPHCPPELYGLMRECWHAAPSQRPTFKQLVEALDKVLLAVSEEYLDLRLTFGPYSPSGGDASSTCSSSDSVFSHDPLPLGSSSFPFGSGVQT

[9] = biological target: Mitogen-activated protein kinase 14 (Homo sapiens) (UniProt Q16539); experiment: MAPK14 Invitrogen selectivity data (BI); conditions: Compound concentration 3.0 uM
Sequence of Mitogen-activated protein kinase 14 (Homo sapiens) (Q16539 whole entry): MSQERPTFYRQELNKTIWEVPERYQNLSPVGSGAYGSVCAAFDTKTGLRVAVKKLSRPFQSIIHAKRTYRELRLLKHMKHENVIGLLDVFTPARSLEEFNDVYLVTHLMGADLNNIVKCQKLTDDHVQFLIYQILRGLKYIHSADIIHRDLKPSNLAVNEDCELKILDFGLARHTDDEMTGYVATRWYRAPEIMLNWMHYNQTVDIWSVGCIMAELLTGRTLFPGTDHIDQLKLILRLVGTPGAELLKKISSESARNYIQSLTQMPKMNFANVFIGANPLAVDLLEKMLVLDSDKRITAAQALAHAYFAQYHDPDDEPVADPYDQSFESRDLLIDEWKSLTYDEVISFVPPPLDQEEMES

[10] = biological target: Phosphatidylinositol 4-kinase beta (Homo sapiens) (UniProt Q9UBF8); experiment: PI4KB Invitrogen selectivity data (BI); conditions: Compound concentration 3.0 uM
Sequence of Phosphatidylinositol 4-kinase beta (Homo sapiens) (Q9UBF8 2-816 limits assumed): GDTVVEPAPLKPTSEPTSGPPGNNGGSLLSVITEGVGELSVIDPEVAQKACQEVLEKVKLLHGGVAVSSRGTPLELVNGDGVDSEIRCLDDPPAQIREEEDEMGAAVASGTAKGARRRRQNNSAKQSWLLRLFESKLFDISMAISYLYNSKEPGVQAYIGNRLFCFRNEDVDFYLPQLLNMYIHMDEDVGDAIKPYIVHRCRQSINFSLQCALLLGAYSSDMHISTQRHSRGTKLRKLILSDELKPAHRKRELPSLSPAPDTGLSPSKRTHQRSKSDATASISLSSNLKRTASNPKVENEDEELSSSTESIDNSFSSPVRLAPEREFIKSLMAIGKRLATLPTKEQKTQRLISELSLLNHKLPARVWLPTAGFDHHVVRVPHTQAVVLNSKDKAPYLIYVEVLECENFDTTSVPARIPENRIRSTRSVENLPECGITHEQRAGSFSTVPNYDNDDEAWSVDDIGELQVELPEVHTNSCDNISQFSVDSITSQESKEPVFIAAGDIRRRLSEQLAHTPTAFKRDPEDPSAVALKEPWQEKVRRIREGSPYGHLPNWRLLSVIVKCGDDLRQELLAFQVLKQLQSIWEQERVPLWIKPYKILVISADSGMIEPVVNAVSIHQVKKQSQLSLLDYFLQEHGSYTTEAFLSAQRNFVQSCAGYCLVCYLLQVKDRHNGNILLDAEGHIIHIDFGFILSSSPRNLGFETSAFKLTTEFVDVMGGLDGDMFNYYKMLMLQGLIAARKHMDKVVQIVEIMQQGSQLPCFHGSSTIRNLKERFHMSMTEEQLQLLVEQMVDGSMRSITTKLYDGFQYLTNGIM

[11] = biological target: T2, Serine/threonine-protein kinase D2 (Homo sapiens) (UniProt Q9BZL6); experiment: PRKD2 Invitrogen selectivity data (BI); conditions: Compound concentration 3.0 uM
T2 sequence (whole entry): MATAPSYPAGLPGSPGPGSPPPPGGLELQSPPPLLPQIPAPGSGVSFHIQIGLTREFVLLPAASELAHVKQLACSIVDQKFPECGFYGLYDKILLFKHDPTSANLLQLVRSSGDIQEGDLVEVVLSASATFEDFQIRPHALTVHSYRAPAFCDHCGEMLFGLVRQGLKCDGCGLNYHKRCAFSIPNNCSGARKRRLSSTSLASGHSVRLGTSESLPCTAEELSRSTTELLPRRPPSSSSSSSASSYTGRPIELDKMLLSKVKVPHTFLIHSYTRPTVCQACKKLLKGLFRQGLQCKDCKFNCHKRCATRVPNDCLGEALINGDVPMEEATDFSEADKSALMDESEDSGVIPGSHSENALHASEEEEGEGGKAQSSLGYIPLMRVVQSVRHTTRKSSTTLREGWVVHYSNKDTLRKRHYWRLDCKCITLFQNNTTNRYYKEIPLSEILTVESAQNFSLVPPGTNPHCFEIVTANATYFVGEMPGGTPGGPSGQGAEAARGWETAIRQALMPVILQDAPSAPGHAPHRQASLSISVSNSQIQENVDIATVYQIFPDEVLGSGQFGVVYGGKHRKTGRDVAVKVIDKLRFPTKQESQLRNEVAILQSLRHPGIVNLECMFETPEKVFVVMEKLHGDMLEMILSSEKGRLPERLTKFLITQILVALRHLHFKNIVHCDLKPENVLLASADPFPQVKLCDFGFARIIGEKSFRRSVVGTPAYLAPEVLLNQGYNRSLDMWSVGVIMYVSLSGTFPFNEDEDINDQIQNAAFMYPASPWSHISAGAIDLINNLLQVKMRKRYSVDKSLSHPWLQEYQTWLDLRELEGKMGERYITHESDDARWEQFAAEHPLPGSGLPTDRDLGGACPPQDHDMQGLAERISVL

[12] = biological target: T3, cGMP-dependent protein kinase 1 (Homo sapiens) (UniProt Q13976); experiment: PRKG1 Invitrogen selectivity data (BI); conditions: Compound concentration 3.0 uM
T3 sequence (whole entry): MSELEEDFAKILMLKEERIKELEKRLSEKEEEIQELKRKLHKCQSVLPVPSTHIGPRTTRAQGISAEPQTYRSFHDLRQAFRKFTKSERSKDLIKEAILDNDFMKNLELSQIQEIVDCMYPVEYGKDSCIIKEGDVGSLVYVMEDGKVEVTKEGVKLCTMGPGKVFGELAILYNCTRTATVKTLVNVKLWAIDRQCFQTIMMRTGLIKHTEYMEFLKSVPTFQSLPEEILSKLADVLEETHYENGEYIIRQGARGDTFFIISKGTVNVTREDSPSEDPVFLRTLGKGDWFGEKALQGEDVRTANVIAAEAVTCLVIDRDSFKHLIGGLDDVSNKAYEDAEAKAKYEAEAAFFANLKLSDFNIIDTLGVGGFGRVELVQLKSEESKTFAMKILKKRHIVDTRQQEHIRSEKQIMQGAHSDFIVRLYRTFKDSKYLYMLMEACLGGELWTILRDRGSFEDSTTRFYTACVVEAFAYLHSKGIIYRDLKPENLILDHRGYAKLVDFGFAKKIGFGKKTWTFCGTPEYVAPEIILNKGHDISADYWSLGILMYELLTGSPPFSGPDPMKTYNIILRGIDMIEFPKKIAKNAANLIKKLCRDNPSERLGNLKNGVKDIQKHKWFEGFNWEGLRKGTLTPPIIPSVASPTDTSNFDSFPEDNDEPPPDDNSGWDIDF

[13] = biological target: Receptor-interacting serine/threonine-protein kinase 2 (Homo sapiens) (UniProt O43353); experiment: RIPK2 Invitrogen selectivity data (BI); conditions: Compound concentration 3.0 uM
Sequence of Receptor-interacting serine/threonine-protein kinase 2 (Homo sapiens) (O43353 whole entry): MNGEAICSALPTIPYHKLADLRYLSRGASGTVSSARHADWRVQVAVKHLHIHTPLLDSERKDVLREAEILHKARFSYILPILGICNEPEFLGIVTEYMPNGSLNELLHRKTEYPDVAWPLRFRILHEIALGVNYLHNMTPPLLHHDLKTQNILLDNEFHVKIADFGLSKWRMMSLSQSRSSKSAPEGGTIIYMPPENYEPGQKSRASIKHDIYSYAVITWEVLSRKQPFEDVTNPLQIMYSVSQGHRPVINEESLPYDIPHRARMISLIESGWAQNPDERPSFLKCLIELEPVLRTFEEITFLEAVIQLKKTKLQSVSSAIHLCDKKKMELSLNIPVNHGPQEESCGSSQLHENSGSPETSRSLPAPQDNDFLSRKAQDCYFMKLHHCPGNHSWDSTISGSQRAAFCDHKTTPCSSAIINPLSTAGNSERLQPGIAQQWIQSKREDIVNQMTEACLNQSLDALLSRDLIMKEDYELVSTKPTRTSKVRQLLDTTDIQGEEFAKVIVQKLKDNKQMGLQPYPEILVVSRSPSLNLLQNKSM

Measured: residual activity

Sequence of Somatostatin receptor type 1 (Homo sapiens) (P30872 whole entry): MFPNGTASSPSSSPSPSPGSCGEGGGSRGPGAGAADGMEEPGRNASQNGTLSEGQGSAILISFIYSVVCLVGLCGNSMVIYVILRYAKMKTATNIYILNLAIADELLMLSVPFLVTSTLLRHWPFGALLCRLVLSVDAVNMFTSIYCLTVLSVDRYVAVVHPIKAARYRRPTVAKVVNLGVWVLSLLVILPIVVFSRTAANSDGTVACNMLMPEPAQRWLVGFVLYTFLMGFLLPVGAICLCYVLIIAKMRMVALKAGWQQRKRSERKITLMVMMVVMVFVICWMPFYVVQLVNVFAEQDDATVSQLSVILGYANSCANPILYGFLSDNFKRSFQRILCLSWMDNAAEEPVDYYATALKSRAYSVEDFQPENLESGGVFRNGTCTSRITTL
Sequence of Cholecystokinin receptor type A (Homo sapiens) (P32238 whole entry): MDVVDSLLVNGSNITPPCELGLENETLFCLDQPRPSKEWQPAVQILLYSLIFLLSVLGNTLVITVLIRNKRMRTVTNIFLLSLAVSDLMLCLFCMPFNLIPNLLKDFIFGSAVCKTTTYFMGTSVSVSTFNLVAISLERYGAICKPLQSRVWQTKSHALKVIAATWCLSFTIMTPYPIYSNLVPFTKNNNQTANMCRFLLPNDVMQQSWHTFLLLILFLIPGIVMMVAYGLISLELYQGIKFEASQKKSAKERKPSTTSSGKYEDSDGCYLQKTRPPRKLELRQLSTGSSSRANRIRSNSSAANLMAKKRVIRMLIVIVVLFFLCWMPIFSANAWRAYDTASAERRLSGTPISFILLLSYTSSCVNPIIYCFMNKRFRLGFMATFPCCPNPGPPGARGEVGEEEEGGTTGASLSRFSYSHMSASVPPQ

CN(C)C(=O)Cn1cc(-c2nc([C@@](C)(c3ccc(-c4cnc(N)nc4)cc3)C3CC3)no2)cn1 [BI 665915]
inactive: [1] 113% | [2] 96% | [3] 103% | [4] 96% | [5] 94% | [6] 99.5% | [7] 108% | [8] 96.5% | [9] 107% | [10] 95% | [11] 95% | [12] 102% | [13] 91%
